Assay results: PubChem BioAssay AID651795 (Broad Institute, 2012)
Values joined by “and” are separate entries in the source; they are usually repeats but may differ in a detail not shown here. Equal entries are not always repeated. Records with an inconclusive call do not appear. Active and inactive are the calls of the source.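 The calls were made as follows: active = compounds whose fitted curve reaches 40% MLANA inhibition below twice the top dose tried; inconclusive = flat curve with 30 to 70% opposite effect, or poor fit; inactive = the rest.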

Experiments:
[1] = tested on: SK-MEL-5 MLANA mRNA qPCR, delta delta Ct, overnight; assay: MITF target gene MLANA transcript reduction – cell-based, RT-qPCR, SK-MEL-5, dry powder, dose response (AID 651795)
[2] = as above; settings: SK-MEL-5 MLANA mRNA qPCR, delta delta Ct, overnight; at 35 µM (top of the series)

Row | Compound | AC40 [1] | MLANA expression inhibition [2]
1 | COc1ccc(NC2=C(N3CCCCC3)C(=O)c3ccccc3C2=O)cc1 | 11 µM | –
2 | NC1=C(NS(=O)(=O)c2ccc(Br)s2)C(=O)c2ccccc2C1=O | – | 31.6% (inactive)
3 | NC1=C(NS(=O)(=O)c2cccs2)C(=O)c2ccccc2C1=O | 2.27 µM | –
4 | Cc1nc2ccccc2n1/N=C/c1ccc([N+](=O)[O-])s1 | 2.75 µM | –
5 | COC1=C(NS(=O)(=O)c2ccc(Br)cc2)C(=O)c2ccccc2C1=O | 9.12 µM | –
6 | CC(C)N1CCN(C2=C(Nc3ccc(F)cc3)C(=O)c3ccccc3C2=O)CC1 | 5.31 µM | –
7 | C=CCNC1=C(Cl)C(=O)c2ccccc2C1=O | 0.764 µM | –
8 | O=C1C=C(NS(=O)(=O)c2ccc(Br)cc2)C(=O)c2ccccc21 | 2.44 µM | –
9 | COC1=C(Nc2ccccc2)C(=O)c2ccccc2C1=O | 0.492 µM | –
10 | COC1=C(NS(=O)(=O)c2cccs2)C(=O)c2ccccc2C1=O | 10.5 µM | –
11 | CCN1CCN(C2=C(NS(=O)(=O)c3ccc(Br)cc3)C(=O)c3ccccc3C2=O)CC1 | 6.43 µM | –
12 | O=C1C(Nc2ccc(Br)cc2)=C(N2CCCCC2)C(=O)c2ccccc21 | 14.3 µM | –
13 | CN1CCN(C2=C(Nc3ccc(F)cc3F)C(=O)c3ccccc3C2=O)CC1 | 3.45 µM | –
14 | O=C(NC1=C(Cl)C(=O)c2ccccc2C1=O)c1ccccc1 | 0.227 µM | –
15 | O=C1C=C(NS(=O)(=O)c2cccs2)C(=O)c2ccccc21 | 1.98 µM | –
16 | O=C1C(Nc2ccccc2)=C(c2ccccc2)C(=O)c2ccccc21 | 7.78 µM | –

Row | Compound | AC40 [1] | MLANA expression inhibition [2]
17 | CC(C)N1CCN(C2=C(Nc3ccc(F)cc3F)C(=O)c3ccccc3C2=O)CC1 | 3.47 µM | –
18 | O=C1C=C(Nc2ccccc2)C(=O)c2ccccc21 | 0.337 µM and 0.389 µM | –
19 | NC1=C(NS(=O)(=O)c2ccccc2)C(=O)c2ccccc2C1=O | 4.5 µM | –
20 | CN1CCN(C2=C(NS(=O)(=O)c3ccc(Br)s3)C(=O)c3ccccc3C2=O)CC1 | 2.93 µM | –
21 | CCN1CCN(C2=C(Nc3ccc(F)cc3F)C(=O)c3ccccc3C2=O)CC1 | 2.48 µM | –
22 | O=C1C=C(NS(=O)(=O)c2ccccc2)C(=O)c2ccccc21 | 1.36 µM | –
23 | O=C1C(Nc2ccc(Cl)cc2)=C(N2CCCC2)C(=O)c2ccccc21 | 8.64 µM | –
24 | O=C1C(Nc2ccc(F)cc2)=C(N2CCCCC2)C(=O)c2ccccc21 | 9.24 µM | –
25 | NC1=CC(=O)c2ccccc2C1=O | 0.813 µM | –
26 | Cc1ccc(NC2=CC(=O)c3ccccc3C2=O)cc1 | 0.745 µM | –
27 | NS(=O)(=O)c1ccc(NC2=CC(=O)c3ccccc3C2=O)cc1 | 0.0824 µM | –
28 | O=C1C(NS(=O)(=O)c2cccs2)=C(c2ccccc2)C(=O)c2ccccc21 | 10.8 µM | –
29 | NC1=C(NC(=O)c2ccccc2)C(=O)c2ccccc2C1=O | 1.54 µM | –
30 | CCN1CCN(C2=C(NC(=O)c3ccccc3)C(=O)c3ccccc3C2=O)CC1 | 1.15 µM | –
31 | O=C1C=C(Nc2ccc([N+](=O)[O-])c(C(F)(F)F)c2)C(=O)c2ccccc21 | 0.119 µM | –
